The conditions of data set [1]: cited from earlier work.
In the next data set the test system is YAC128 mice. Put plainly: Accelerating rotarod in the YAC128 Huntington disease model. The data set is classed as in vivo. Particulars: YF2 5 mg/kg i.p. daily from age 2 months. As to the method: HAT activator YF2 (U.S. patent application Ser. No. 13/493,490; herein incorporated by reference in its entirety) was tested in the YAC128 Huntington disease model. Animals were treated with YF2 (5 mg/kg, i.p, daily) or vehicle, starting at the age of 2 months.
(In the rotarod test animals must keep their balance on a rotating rod.)

`CCOc1ccccc1C(=O)Nc1ccc(Cl)c(C(F)(F)F)c1` [CTB]: the Solubility result in data set [1] was “insoluble”.
In the case of `CCCCCCCCCCCCCCCc1cccc(OCC)c1C(=O)Nc1ccc(Cl)c(C(F)(F)F)c1` [CTPB], the Solubility result in data set [1] is “insoluble”.
Consider `CCOc1cccc(OCCN(C)C)c1C(=O)Nc1ccc(Cl)c(C(F)(F)F)c1` [YF2], for which the “Rotarod performance of YF2-treated YAC128 mice versus WT mice” value in the data set with YAC128 mice (female mice, 6 months of age, vs WT+YF2 p=0.12734, vs WT+vehicle p=0.1690) is listed as “significance was lost”; in the data set on YAC128 mice (male mice, 4 month old, vs WT+YF2 p=0.1946, vs WT+vehicle p=0.0792) it was “significance was lost”.

The values above are taken from US11191768B2, “Histone acetyltransferase activators and uses thereof” (The Trustees of Columbia University in the City of New York, priority 2014, dated 2021).
